Measurements as given in article doi:10.1101/2024.05.17.594634, “Protein Structure Inspired Drug Discovery” (bioRxiv, 2024).

What was measured:
human CD34+ stem cells = assay: Bone marrow stem cell (hematopoietic) colony formation assay; assay type: cell-based; conditions: for mean number of colonies, % of control, 14 day / mean number of colonies, % of control, 8 day: 40 μM compound, mean N=2; for mean number of colonies, % of control, 14 day: 14 days; for mean number of colonies, % of control, 8 day: total colonies at 8 days
Procedure: In parallel with measuring growth inhibition of cancer cell growth, we measured effect on human hematopoietic stem cells. Hematopoietic stem cells reside in the bone marrow and are the source of mature cells present in blood.[66] Bone marrow is one of the most sensitive organs in the body to drug toxicity, especially so for anticancer drugs where it can approach 100%.[67–69] Bone marrow toxicity was measured by performing hematopoietic colony formation assays on human CD34+ stem cells. The stem cell nature of this assay permitted assessment of trilineage colony formation: granulocytic (white blood cells), erythrocytic (red blood cells) and megakaryocytic (platelets), measured by the formation of CFU-GM (colony-forming-granulocyte-macrophage), BFU-E (erythroid burst-forming unites) and CFU-GEMM (colony-forming unit-granulocyte, erythrocyte, monocyte, megakaryocyte) colonies, respectively. Two measurements were taken. Total colonies at eight days were measured, thereby matching the eight-day time frame of cancer cell colony formation assays. At fourteen days, individual colonies have differentiated, permitting quantification of each lineage. Human hematopoietic stem cell trilineage colony formation assays were performed as previously described by us.[65] Briefly, human cord blood CD34+ cells (catalog #: 70008.5) were purchased from StemCell Technology Inc., and seeded at 1 × 10^4 cells per 35 mm dish. Cells were cultured in MethoCult™ Express (StemCell Technologies, Inc.) semisolid media, per manufacturer’s instructions, in the presence of compound or vehicle control. At eight days colonies, i.e., groups of ≥ 10 cells, were counted. At fourteen days, individual colonies of BFU-E, CFU-GM and CFU-GEMM were identified based on manufacturers’ morphologic characterization criteria. Assays were run in replicates of N = 2; some were run in replicates of N = 3, as denoted.

HT29 colon cancer cells = assay: Eight-day colony formation assay, HT29; assay type: cell-based, human
Procedure: (§1) We sought to identify compounds that would inhibit the growth of cancer cells, but that also did so selectively. Inhibition of cancer cell growth is a highly sought after attribute of anticancer agents. This was assessed by measuring the ability of a compound to inhibit cell growth in eight-day colony formation assays, examining concentrations ranging from 0.017 to 40 μM. Breast, colon, lung and prostate cancer are four of the most common causes of cancer in the United States, are major causes of cancer cell death, and were examined.[64] Two cell lines for each cancer type were assessed: A549 (adenocarcinoma) and H226 (squamous carcinoma) for lung, MCF-7 (estrogen receptor [ER] positive) and MDA-MB-231 (ER negative) for breast, LNCaP (androgen receptor [AR] positive) and PC3-M (AR negative) for prostate, and HCT116 (wild type p53, mutated KRAS) and HT29 (p53 mutant) for colon.[65]
(§2) In considering effect on cancer cells, for each compound and each cell line tested we calculated the efficacy ratio, i.e., efficacy ratio = (percent of remaining cancer cell colonies)/(percent of remaining bone marrow colonies), at 8 days after treatment with 40 μM compound (S4 Fig). We considered those with an efficacy ratio below 0.5 as active and at least partially selective. The stringency of this is highlighted by considering the effect of 5FU on colon cancer, where it is frequently used clinically in proven curative settings, as well as proven life prolonging settings.[70, 71] […] Even at 5.7 μM, where 5FU is toxic to bone marrow, with hematopoietic colony formation at 38% of control, the efficacy ratio for HT29 cells has only dropped to 0.52. […] It can be seen that compounds segregate to protein sites. Specifically, of 10 compounds meeting this activity criteria (i.e., efficacy ratio <0.5), 3 were directed at the Dxr2 site, 3 at FolC2, 2 at FolC1, 1 at Dxr1 and 1 at TYLT.
(§3) Eight-day colony formation assays of cancer cells were performed as described by us.[87] Briefly, 0.5–1.0 × 10^3 cells were seeded into a 12 well plate, after 24 hours compound added and eight days later colonies (of 3 or more cells) were scored after trypan blue staining. Conditions were in replicates of N = 2. All compounds were stored under desiccated conditions in a sealed container at minus 20°C upon arrival. One day prior to use, they were placed into DMSO, stored at […] as stock solutions, thawed just prior to use, and not reused.

[1] = test system: HT29, MDA-MB-231 and H226; assay: NCI-60 cell line screen, other cell lines; assay type: cell-based, human; conditions: 10 μM X 48 hours
Procedure: Above findings support the importance of Dxr2 and FolC2 sites, and of Dxr2-017 and FolC2-001 compounds, respectively. The predicted poses of Dxr2-017 bound to the Dxr2 site and FolC2-001 bound to the FolC2 site are shown (Fig 7). The NCI-60 cell line screen evaluates compound growth inhibition and cell toxicity in a highly standardized manner across 60 different cell lines. Dxr2-017 and FolC2-001 were evaluated in this assay (S5 Fig). NCI-60 screens evaluate compounds at 10 μM X 48 hours. […] Of high interest, in the NCI-60 screen Dxr2-017 had relatively high activity against melanoma cell lines, inducing cell death in 5 cell lines ranging from 25–65%, and inhibiting growth in 4 cell lines ranging from 76–96%. Its impact on cell death represents the most striking relative difference in response across cell lines.

A549 lung cancer cells = assay: Eight-day colony formation assay, A549; assay type: cell-based, human
Procedure: as §1, §2, §3

[2] = test system: PC3-M prostate cancer cells; assay: Eight-day colony formation assay, PC3-M; assay type: cell-based, human
Procedure: as §1, §2, §3

H226 lung cancer cells = assay: Eight-day colony formation assay, H226; assay type: cell-based, human
Procedure: as §1, §2, §3

[3] = test system: MCF-7 breast cancer cells; assay: Eight-day colony formation assay, MCF-7; assay type: cell-based, human
Procedure: as §1, §2, §3

[4] = test system: MDA-MB-231 breast cancer cells; assay: Eight-day colony formation assay, MDA-MB-231; assay type: cell-based, human; conditions: MDAMB231
Procedure: as §1, §2, §3

[5] = test system: LNCaP prostate cancer cells; assay: Eight-day colony formation assay, LNCaP; assay type: cell-based, human
Procedure: as §1, §2, §3

HT116 colon cancer cells = assay: Eight-day colony formation assay, HT116; assay type: cell-based, human
Procedure: as §1, §2, §3

[6] = test system: human breast, prostate, colon and lung cancer cells; assay: Eight-day colony formation assays, summary across the cancer cell line panel; assay type: cell-based
Procedure: as §1, §2, §3

In the case of O=c1[nH]cc(F)c(=O)[nH]1 [5FU, 5-fluorouracil, reference compound], the “effect on bone marrow” value (human CD34+ stem cells; 0.82 μM) was “no effect”, the “effect on bone marrow colony formation” value (human CD34+ stem cells; 5.7 μM) was “profound suppressive effects” and the “hematopoietic colony formation, % of control” value (human CD34+ stem cells; 5.7 μM) was 38 % of control. The “effect on bone marrow colony formation” value (human CD34+ stem cells; 40 μM) was “completely suppresses colony formation”, the efficacy ratio (HT29 colon cancer cells; 0.82 μM) was 0.82 and the “efficacy ratio (cancer cell colonies to bone marrow colonies at 8 days)” value (HT29 colon cancer cells; 5.7 μM) was 0.52.
With Cc1nnsc1C(=O)OCCCn1c(=O)[nH]c2ccccc21 [Dxr2-001] the “mean number of colonies, % of control, 14 day” value (human CD34+ stem cells) was 93 % of control and the “mean number of colonies, % of control, 8 day” value (human CD34+ stem cells) was 109 % of control.
With c1ccc(CCc2n[nH]c(-c3ccccn3)n2)cc1 [FolC1-031] the “mean number of colonies, % of control, 14 day” value (human CD34+ stem cells) was 85 % of control and the “mean number of colonies, % of control, 8 day” value (human CD34+ stem cells) was 80 % of control.
With O=C(Cn1c(=O)oc2ccccc21)N1CCn2c1nc1ccccc12 [FolC2-001] the “activity in NCI-60 screen” value [1] was “against H226”, the “mean number of colonies, % of control, 14 day” value (human CD34+ stem cells) was 87 % of control and the “mean number of colonies, % of control, 8 day” value (human CD34+ stem cells) was 108 % of control. For the same compound, the “efficacy ratio (cancer cell colonies to bone marrow colonies at 8 days)” value (A549 lung cancer cells; 5.7 μM) was 0.99, the “efficacy ratio (cancer cell colonies to bone marrow colonies at 8 days)” value (A549 lung cancer cells; 40 μM) was 0.53 and the “efficacy ratio (cancer cell colonies to bone marrow colonies at 8 days)” value ([2]; 5.7 μM) was 0.96. For the same compound, the “efficacy ratio (cancer cell colonies to bone marrow colonies at 8 days)” value ([2]; 40 μM) was 0.41, the “efficacy ratio (cancer cell colonies to bone marrow colonies at 8 days)” value (H226 lung cancer cells; 5.7 μM) was 0.56 and the “efficacy ratio (cancer cell colonies to bone marrow colonies at 8 days)” value (H226 lung cancer cells; 40 μM) was 0.00. For the same compound, the “efficacy ratio (cancer cell colonies to bone marrow colonies at 8 days)” value ([3]; 5.7 μM) was 0.65, the “efficacy ratio (cancer cell colonies to bone marrow colonies at 8 days)” value ([3]; 40 μM) was 0.43 and the “efficacy ratio (cancer cell colonies to bone marrow colonies at 8 days)” value ([4]; 5.7 μM) was 0.81. For the same compound, the “efficacy ratio (cancer cell colonies to bone marrow colonies at 8 days)” value ([4]; 40 μM) was 0.28, the “efficacy ratio (cancer cell colonies to bone marrow colonies at 8 days)” value ([5]; 5.7 μM) was 0.82 and the “efficacy ratio (cancer cell colonies to bone marrow colonies at 8 days)” value ([5]; 40 μM) was 0.34. The “efficacy ratio (cancer cell colonies to bone marrow colonies at 8 days)” value (HT116 colon cancer cells; 5.7 μM) was 0.85, the “efficacy ratio (cancer cell colonies to bone marrow colonies at 8 days)” value (HT116 colon cancer cells; 40 μM) was 0.60 and the “number of cell lines exhibiting an efficacy ratio below 0.5” value ([6]; 40 μM) was 5 cell lines. The “relative activity for a given compound, % (% of cells tested where ratio is <0.5)” value ([6]; 40 μM) was 63%, the “fold higher mean efficacy ratio than that of Dxr2-017” value ([6]; 40 μM, cells with ratio below 0.5, P = 0.001) was 9.7 fold and the “mean efficacy ratio for cells/compounds where the efficacy ratio is below 0.5” value ([6]; 40 μM, mean ± SEM) was 0.29 ± 0.09. The “efficacy at concentrations below 40 μM” value [6] was “some degree of efficacy observed”, the “efficacy ratio (cancer cell colonies to bone marrow colonies at 8 days)” value (HT29 colon cancer cells; 5.7 μM) was 1.13 and the “efficacy ratio (cancer cell colonies to bone marrow colonies at 8 days)” value (HT29 colon cancer cells; 40 μM) was 0.79.
For O=C(CCc1c[nH]c2ccccc12)N1CCSc2ccccc21 [FolC2-005], the “mean number of colonies, % of control, 14 day” value (human CD34+ stem cells) was 101 % of control, the “mean number of colonies, % of control, 8 day” value (human CD34+ stem cells) was 105 % of control and the “efficacy ratio (cancer cell colonies to bone marrow colonies at 8 days)” value (A549 lung cancer cells; 40 μM) was 0.69. For the same compound, the “efficacy ratio (cancer cell colonies to bone marrow colonies at 8 days)” value ([2]; 40 μM) was 0.00, the “efficacy ratio (cancer cell colonies to bone marrow colonies at 8 days)” value (H226 lung cancer cells; 40 μM) was 0.11 and the “efficacy ratio (cancer cell colonies to bone marrow colonies at 8 days)” value ([3]; 40 μM) was 0.33. For the same compound, the “efficacy ratio (cancer cell colonies to bone marrow colonies at 8 days)” value ([4]; 40 μM) was 0.78, the “efficacy ratio (cancer cell colonies to bone marrow colonies at 8 days)” value ([5]; 40 μM) was 0.28 and the “efficacy ratio (cancer cell colonies to bone marrow colonies at 8 days)” value (HT116 colon cancer cells; 40 μM) was 0.70. The “relative activity for a given compound, % (% of cells tested where ratio is <0.5)” value ([6]; 40 μM) was 63%, the “efficacy at concentrations below 40 μM” value [6] was “A similar phenomenon is observed” and the “efficacy ratio (cancer cell colonies to bone marrow colonies at 8 days)” value (HT29 colon cancer cells; 40 μM) was 0.06.
With O=C(Nc1nnn[nH]1)c1cc(-c2ccccc2)nc2ccccc12 [PRT-051] the “mean number of colonies, % of control, 14 day” value (human CD34+ stem cells) was 119 % of control and the “mean number of colonies, % of control, 8 day” value (human CD34+ stem cells) was 93 % of control.
With O=C(Cc1n[nH]c(=O)c2ccccc12)Nn1cnc2ccccc21 [TYLT-001] the “mean number of colonies, % of control, 14 day” value (human CD34+ stem cells) was 103 % of control and the “mean number of colonies, % of control, 8 day” value (human CD34+ stem cells) was 117 % of control.
O=C(COC(=O)c1cccs1)c1ccc2[nH]c(=O)[nH]c2c1 [TYLT-003] was tested, and the “mean number of colonies, % of control, 14 day” value (human CD34+ stem cells) was 94 % of control and the “mean number of colonies, % of control, 8 day” value (human CD34+ stem cells) was 97 % of control.
